Measured values published in the NIST ThermoML archive (doi:10.1016/j.jct.2013.05.019).
± gives the expanded uncertainty stated by the source.

Assay: xn = mol fraction of the nth substance listed
Details: 101 kPa, Liquid; for viscosity: Falling or rolling sphere viscometry; for mass density: Vibrating tube method; for electrical conductivity: Alternating current cell with electrodes

CCCC[NH3+].O=[N+]([O-])[O-] [n-butylammonium nitrate] + O
Details	electrical conductivity [S/m]	mass density [kg/m3]	viscosity [mPa·s]
293.15 K, x1 = 0.1	–	1059.97 ± 0.12	2.468 ± 0.053
293.15 K, x1 = 0.2001	–	1081.27 ± 0.13	4.454 ± 0.096
293.15 K, x1 = 0.3009	–	1090.62 ± 0.14	7.217 ± 0.16
293.15 K, x1 = 0.4004	–	1095.83 ± 0.15	11.69 ± 0.25
293.15 K, x1 = 0.5011	–	1099.15 ± 0.16	17.61 ± 0.38
293.15 K, x1 = 0.6505	–	1102.02 ± 0.2	31.21 ± 0.69
293.15 K, x1 = 0.7869	–	1103.62 ± 0.23	51.54 ± 1.1
293.15 K, x1 = 0.9022	–	1104.42 ± 0.27	78.32 ± 2
293.15 K, x1 = 1	–	1104.68 ± 0.31	111.35 ± 3.6
298.15 K, x1 = 0.001	0.583 ± 0.065	–	–
298.15 K, x1 = 0.002	0.997 ± 0.059	–	–
298.15 K, x1 = 0.004	1.55 ± 0.054	–	–
298.15 K, x1 = 0.005	1.73 ± 0.052	–	–
298.15 K, x1 = 0.006	1.89 ± 0.055	–	–
298.15 K, x1 = 0.0081	2.18 ± 0.05	–	–
298.15 K, x1 = 0.02	2.95 ± 0.06	–	–
298.15 K, x1 = 0.03	3.19 ± 0.06	–	–
298.15 K, x1 = 0.05	3.4 ± 0.07	–	–
298.15 K, x1 = 0.0609	3.46 ± 0.07	–	–
298.15 K, x1 = 0.1	3.42 ± 0.07	1056.89 ± 0.12	2.221 ± 0.048
298.15 K, x1 = 0.1999	3.31 ± 0.07	–	–
298.15 K, x1 = 0.2001	–	1078.05 ± 0.13	3.908 ± 0.084
298.15 K, x1 = 0.2997	2.95 ± 0.06	–	–
298.15 K, x1 = 0.3009	–	1087.35 ± 0.14	6.297 ± 0.14
298.15 K, x1 = 0.3999	2.52 ± 0.05	–	–
298.15 K, x1 = 0.4004	–	1092.56 ± 0.15	10.08 ± 0.22
298.15 K, x1 = 0.4998	2.08 ± 0.04	–	–
298.15 K, x1 = 0.5011	–	1095.89 ± 0.16	15.1 ± 0.33
298.15 K, x1 = 0.5986	1.77 ± 0.035	–	–
298.15 K, x1 = 0.6505	–	1098.8 ± 0.19	26.25 ± 0.57
298.15 K, x1 = 0.6979	1.45 ± 0.029	–	–
298.15 K, x1 = 0.7869	–	1100.42 ± 0.23	42.46 ± 0.93
298.15 K, x1 = 0.799	1.23 ± 0.025	–	–
298.15 K, x1 = 0.9001	1.01 ± 0.02	–	–
298.15 K, x1 = 0.9022	–	1101.25 ± 0.27	65.05 ± 1.5
298.15 K, x1 = 1	0.867 ± 0.017	1101.52 ± 0.31	89.95 ± 2.5
303.15 K, x1 = 0.1	–	1053.73 ± 0.12	1.963 ± 0.042
303.15 K, x1 = 0.2001	–	1074.8 ± 0.13	3.459 ± 0.074
303.15 K, x1 = 0.3009	–	1084.06 ± 0.13	5.545 ± 0.12
303.15 K, x1 = 0.4004	–	1089.29 ± 0.15	8.783 ± 0.19
303.15 K, x1 = 0.5011	–	1092.64 ± 0.16	13.08 ± 0.28
303.15 K, x1 = 0.6505	–	1095.58 ± 0.19	22.35 ± 0.49
303.15 K, x1 = 0.7869	–	1097.24 ± 0.23	35.45 ± 0.78
303.15 K, x1 = 0.9022	–	1098.1 ± 0.27	53.53 ± 1.1
303.15 K, x1 = 1	–	1098.38 ± 0.31	73.04 ± 1.8
308.15 K, x1 = 0.1	–	1050.52 ± 0.12	1.754 ± 0.038
308.15 K, x1 = 0.2001	–	1071.53 ± 0.13	3.088 ± 0.066
308.15 K, x1 = 0.3009	–	1080.78 ± 0.13	4.924 ± 0.11
308.15 K, x1 = 0.4004	–	1086.02 ± 0.14	7.715 ± 0.17
308.15 K, x1 = 0.5011	–	1089.4 ± 0.16	11.42 ± 0.25
308.15 K, x1 = 0.6505	–	1092.38 ± 0.19	19.25 ± 0.42
308.15 K, x1 = 0.7869	–	1094.08 ± 0.23	29.98 ± 0.66
308.15 K, x1 = 0.9022	–	1094.97 ± 0.27	44.59 ± 0.98
308.15 K, x1 = 1	–	1095.26 ± 0.31	60.25 ± 1.3
313.15 K, x1 = 0.1	–	1047.4 ± 0.12	1.579 ± 0.034
313.15 K, x1 = 0.2001	–	1068.24 ± 0.13	2.774 ± 0.059
313.15 K, x1 = 0.3009	–	1077.49 ± 0.13	4.401 ± 0.094
313.15 K, x1 = 0.4004	–	1082.76 ± 0.14	6.823 ± 0.15
313.15 K, x1 = 0.5011	–	1086.16 ± 0.16	10.04 ± 0.22
313.15 K, x1 = 0.6505	–	1089.2 ± 0.19	16.75 ± 0.36
313.15 K, x1 = 0.7869	–	1090.94 ± 0.22	25.8 ± 0.56
313.15 K, x1 = 0.9022	–	1091.86 ± 0.26	37.54 ± 0.82
313.15 K, x1 = 1	–	1092.17 ± 0.3	50.12 ± 1.1
